Data reported in the supplement of paper PMC3974653.
Structures can show the parent of a compound that is named as a salt.

test system: MTT (mouse pheochromocytoma); experiment: IC50 of cell viability (ATP content); conditions: (24 or 48 h)
In short: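 Each well of a white 1536-well plate received 5 µl of MTT mouse pheochromocytoma cells at 200,000 cells/ml in DMEM containing 5% FBS and 1% horse serum. After overnight culture at 37°C, 5% CO2, cells were exposed for 24 or 48 hrs to 23 nl of library compound in DMSO, pinned at 8 final concentrations from 0.5 nM to 46 µM. CellTiter-Glo luminescence was read after 15 minutes, and IC50 was obtained from a four-parameter logistic fit of signals normalised to positive-control and DMSO wells.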

IC50 of cell viability [µM]	SMILES
> 46	CN(Cc1cc(Br)cc(Br)c1N)C1CCCCC1.Cl [BROMHEXINE HYDROCHLORIDE]
> 46	O=C(Nc1ncc([N+](=O)[O-])s1)c1cccs1 [Tenonitrozol]
> 46	CCCCCCCCCCCCCCCC(=O)O[C@@H]1[C@@H](O)[C@@H](O)C(C(NC(=O)[C@H]2C[C@@H](CCC)CN2C)C(C)Cl)O[C@@H]1SC (stereo not given in full) [Clindamycin palmitate]
> 46	CC(=O)C1(O)CCC2C3CC(C)C4=CC(=O)CCC4(C)C3CCC21C (stereo not given) [Medroxyprogesterone]
> 46	O=C(Cn1ccnc1[N+](=O)[O-])NCc1ccccc1 [Benznidazol]
> 46	CCOC(=O)\C1=C(/C)N\C(=C(/C1C2=CC=CC(=C2)[N+]([O-])=O)C(=O)OC)C (stereo not given) [NITRENDIPINE]
> 46	C#C[C@]1(O)CC[C@H]2[C@@H]3CCC4=C/C(=N\O)CC[C@H]4[C@@H]3CC[C@]21CC [NORELGESTROMIN]
> 46	CO/N=C(/C(=O)N[C@@H]1C(=O)N2C(C(=O)[O-])=C(C[n+]3ccn4ncccc43)CS[C@H]12)c1nsc(N)n1 [CEFOZOPRAN HYDROCHLORIDE]
> 46	O=C(O)c1ccccc1O [Salicylic acid]
> 46	CN(C)CC[C@@H](c1ccc(Br)cc1)c1ccccn1 [Dexbrompheniramine maleate salt]
> 46	CCN1\C=C(\C(O)=O)C(=O)C2=CC(=C(N3CCN[C@@H](C)C3)C(=C12)F)F [Lomefloxacin hydrochloride]
> 46	COC1C(OC(=O)/C=C/C=C/C=C/C=C/C(=O)O)CCC2(CO2)C1C1(C)OC1CC=C(C)C (stereo not given) [FUMAGILLIN]
> 46	CN(C/C=C/C#CC(C)(C)C)Cc1cccc2ccccc12 [Terbinafine]
> 46	CCN(CC)CC1CCCCN1CC(=O)N1c2ccccc2C(=O)Nc2cccnc21 (stereo not given) [AF-DX 116]
> 46	C/N=C(\NCc1ccccc1)[NH2+]C.C/N=C(\NCc1ccccc1)[NH2+]C.O=S(=O)([O-])[O-] [Bethanidine Sulfate (2:1)]
> 46	CCCNC(C)(C)COC(=O)c1ccccc1 [Meprylcaine hydrochloride]
> 46	CN1CC\C(CC1)=C2/C3=CC=CC=C3CCC4=CC=CN=C24 [Azatadine]
> 46	CC[N+](CC)(CC)CCOC(=O)C(C1CCCC1)C1CCCC1 [DIPONIUM BROMIDE]
> 46	[Na+].NC(=O)C1=CC=[N+](C\C2=C(\[N@]3[C@@H](SC2)[C@H](NC(=O)[C@H](C4=CC=CC=C4)[S]([O-])(=O)=O)C3=O)C([O-])=O)C=C1 [Cefsulodin sodium salt]

IC50 of cell viability [µM]	SMILES
> 46	O=C(c1ccccc1)c1ccccc1 [Benzophenone]
> 46	CNCCCN1c2ccccc2CCc2ccccc21 [Desipramine hydrochloride]
> 46	CC1(C)S[C@@H]2[C@H](NC(=O)CC3=CC=CC=C3)C(=O)[N@@]2[C@@H]1C(O)=O [Capicillin]
> 46	CC(=O)N[S+](=O)([O-])c1ccc(N)cc1 [Sulfacetamide]
> 46	CC(C)n1c(/C=C/[C@H](O)C[C@H](O)CC(=O)[O-])c(-c2ccc(F)cc2)c2ccccc21 [Fluvastatina]
> 46	NC/1=N/C(=O)N(/C=C1)[C@H]2CO[C@H](CO)O2 [TROXACITABINE (Troxatyl)]
> 46	O=[N+]([O-])c1c(Cl)cccc1-c1c[nH]cc1Cl [PYRROLNITRIN]
> 46	CO[C@H]1/C=C/O[C@@]2(C)Oc3c(C)c(O)c4c(c3C2=O)C2=NC3(CCN(CC(C)C)CC3)NC2=C(NC(=O)/C(C)=C\C=C\[C@H](C)[C@H](O)[C@@H](C)[C@@H](O)[C@@H](C)[C@H](OC(C)=O)[C@@H]1C)C4=O [Rifabutin]
> 46	O=C1O[C@H](CN2CCOCC2)CN1/N=C\c1ccc([N+](=O)[O-])o1 [Furaltadone hydrochloride]
> 46	CNC(=N)NCCC[C@H](N)C(=O)O [NG-Monomethyl-L-arginine acetate]
> 46	O=c1[nH]c2cc(C(F)(F)F)c(N3CCOCC3)cc2n(CP(=O)(O)O)c1=O [FANAPANELUM]
> 46	CCCCC(CC)COC(=O)c1ccc(N(C)C)cc1 (stereo not given) [Padimate O]
> 46	CN1CCCCC1CCN1c2ccccc2Sc2ccc(S(C)=O)cc21 (stereo not given) [MESORIDAZINE]
> 46	CC(=O)OCC(=O)[C@@]1(O)CC[C@H]2[C@@H]3CCC/4=C/C(=O)CC[C@]4(C)[C@H]3C(=O)C[C@]12C [Cortisone 21-acetate]
> 46	CC/C=C\C/C=C\C/C=C\CCCCCCCC(=O)O [LINOLENIC ACID]
> 46	Cc1cccc(C)c1NC(=O)[C@H](C)N [Tocainide hydrochloride]
> 46	CCCC[C@H](O)c1ccccc1 [FENIPENTOL]
> 46	COC1=CC=C2CN(C)CC[C@@]34\C=C/[C@H](O)C[C@@H]3OC1=C24 [GALANTHAMINE]
> 46	O=C1OC(OC(=O)c2cccnc2Nc2cccc(C(F)(F)F)c2)c2ccccc21 (stereo not given) [TALNIFLUMATUM]

IC50 of cell viability [µM]	SMILES
> 46	CC(=O)Nc1c(I)cc(I)c(C(=O)O)c1I [ACETRIAZOIC ACID]
> 46	C[C@@H]1C[C@H]2[C@@H]3C[C@H](F)C/4=C/C(=O)/C=C\[C@]4(C)[C@@]3(F)[C@@H](O)C[C@]2(C)[C@@]1(O)C(=O)COC(=O)C(C)(C)C [Flumethasone pivalate]
> 46	CN(C)C(=S)SC(=S)N(C)C [TETRAMETHYLTHIURAM MONOSULFIDE]
> 46	CC(C(=O)O)c1ccc(N2Cc3ccccc3C2=O)cc1 (stereo not given) [INDOPROFEN]
> 46	COc1c(O)cc2c(c1O)[C@H]1O[C@@H](CO)[C@@H](O)[C@@H](O)[C@@H]1OC2=O.O [Bergenin monohydrate]
> 46	COC(=O)[C@@H]1[C@@H]2C[C@H]3c4[nH]c5ccccc5c4CCN3C[C@@H]2CC[C@@H]1O [Yohimbine]
> 46	ClC1=CC\2=C(OC3=C(C=CC=C3)\N=C2N4CCNCC4)C=C1 [AMOXAPINE]
> 46	Cl.NCCS [Cysteamine hydrochloride]
> 46	NC(=O)c1cnccn1 [Pyrazinamide]
> 46	CN1N(C2=CC=CC=C2)C(=O)C(=C1/C)/NC(=O)C3=CN=CC=C3 [Nifenazone]
> 46	N[C@@H]1CN(CC12CC2)C3=C(F)C=C4C(=O)\C(=C/N([C@@H]5C[C@@H]5F)C4=C3Cl)C(O)=O [Sitafloxacin]
> 46	Cl.N[C@@H](Cc1c[nH]cn1)C(=O)O [L-Histidine hydrochloride]
> 46	[O-][n+]1cc[n+]([O-])c2ccccc21 [Quindoxin]
> 46	CC(N)C(=O)OC(C)(C)Cc1ccc(Cl)cc1 (stereo not given) [ALAPROCLATE]
> 46	O=S(=O)([O-])O.[Na+] [Sodium hydrogen sulfate]
> 46	CN(c1nccc(O)n1)C1CCN(c2nc3ccccc3n2Cc2ccc(F)cc2)CC1 [MIZOLASTINE]
> 46	CN1C(C(=O)Nc2ccccn2)C(=O)c2sc(Cl)cc2[S+]1(=O)[O-] (stereo not given) [Lornoxicam]
> 46	CCC(C(=O)NC(N)=O)c1ccccc1 (stereo not given) [ETHYLPHENACEMIDE]
> 46	CCC(=O)c1ccc2c(c1)N(CCCN1CCN(CCO)CC1)c1ccccc1S2 [CARPHENAZINE MALEATE]

SMILES	IC50 of cell viability [µM]
Oc1ccc([C@H]2CNCc3c2ccc(O)c3O)cc1O [SELANDOPAM HYDROCHLORIDE HYDRATE (ZELANDOPAM)]	> 46
Cc1c(Cl)c(=O)oc2cc(OP(=O)(OCCCl)OCCCl)ccc12 [Haloxon]	> 46
COC1=C2OC3C(O)\C=C/C4[C@H]5CC(=C2[C@@]34CCN5C)C=C1 (stereo not given in full) [Codeine]	> 46
CC(C)CCC(=O)OC1CCC2C3CCC4=CC(=O)CC[C@]4(C)C3CC[C@]12C (stereo not given in full) [TESTOSTERONE ISOCAPROATE]	> 46
COC(=O)C1C(OC(=O)c2ccccc2)CC2CCC1N2C (stereo not given) [Allococaine]	> 46
COC(=O)[C@@H](N)CCCNC(=N)N[N+](=O)[O-] [N-NITRO-ARGININE METHYL ESTER]	> 46
CCN(CC)CCOC(=O)C(C)(c1ccccc1)c1ccccc1 [APROFENUM]	> 46
CN1Cc2c(N)cccc2C(c2ccccc2)C1.O=C(O)/C=C\C(=O)O (stereo not given) [NOMIFENSINE MALEATE]	> 46
O=P1(N(CCCl)CCCl)NCCCO1 (stereo not given) [Cyclophosphamide]	> 46
C[C@]12CC[C@H](O)C[C@H]1CCC1C2CC[C@]2(C)[C@@H](c3ccc(=O)oc3)C[C@H]3O[C@]132 (stereo not given in full) [BUFOGENIN]	> 46
COC1=CC=C2[C@H]3Cc4ccc(OC)c5c4[C@@]2(CCN3C)[C@H]1O5 [THEBAINE]	> 46
CC(Cc1ccccc1)NCCn1cnc2c1c(=O)n(C)c(=O)n2C (stereo not given) [Fenethylline]	> 46
CC[N+]1(C)CCCC(OC(=O)C(O)(c2ccccc2)c2ccccc2)C1.[Br-] (stereo not given) [PIPENZOLATE BROMIDE]	> 46
